Measured values published in PMC11868595, “Safety, pharmacokinetics and efficacy of HA121-28 in patients with advanced solid tumors and RET fusion-positive non-small-cell lung cancer: a multicenter, open-label, single-arm phase 1/2 trial” (Signal Transduction and Targeted Therapy, 2025).

System: patients with advanced solid tumors
Test: Phase 1 trial: adverse events (CTCAE), DLT and MTD
Format: in vivo, human
Protocol: The phase 1 trial was a two-part, multicenter, open-label, nonrandomized study to evaluate the safety and preliminary efficacy of HA121-28.
Safety, tolerability, and PK of HA121-28 was assessed in dose-escalation part. The single-patient accelerated titration was carried out at 25 mg and 50 mg; then, the dose escalation proceeded according to a “3 + 3” design in dose range of 100 to 800 mg. Escalation to a higher dose level was considered by the satisfactory review of safety results from the previous lower dose during the first cycle.
The dose-expansion part aims to further access the safety and efficacy of HA121-28 at the selected doses based on data from the dose-escalation part. The RP2D was determined by investigators in view of a thorough review of safety, PK, and efficacy results.
In phase 1 trial, during the dose-escalation part, patients first administered HA121-28 in a single ascending dose under the fasted state, then followed up for seven days. Then, patients received ascending doses of HA121-28 (q.d.) on a 21-day on and 7-day off treatment scheme for a 28-day cycle. For patients deemed beneficial from the treatment by investigators, treatment could remain until disease progression, or they discontinued from the study. In the dose-expansion part of phase 1, as well as phase 2, patients received HA121-28 (q.d.) at the selected doses on a 21-day on and 7-day off treatment scheme until disease progression, or they discontinued from the study.
Treatment-emergent adverse events (TEAEs) were documented during the entire study period. The predefined adverse event of special interest (AESI) was ≥ grade 3 prolonged QT interval. Tumor imaging was performed using contrast-enhanced computed tomography or magnetic resonance imaging at screening, Day 28 of the first cycle, then approximately every eight weeks till the end of the study for phase 1; in phase 2, imaging was scheduled at screening, and every eight weeks during the first 40 weeks, followed by every 12 weeks for the rest of the study period. RECIST 1.1 was used by the independent review committee or investigators for assessment of tumor response. After the original assessment, a repeated assessment was required around four weeks later to confirm a complete or partial response.
The primary endpoints of phase 1 were to investigate the MTD, dose-limiting toxicities, and the incidence and severity of TEAEs. Each TEAE was graded according to the Common Terminology Criteria for Adverse Events (CTCAE, version 5.0) and coded by Medical Dictionary for Regulatory Activities (MedDRA, version 21.0). The secondary endpoints included calculating PK parameters, assessing the ORR and DCR at the recommended dose by investigators as per RECIST 1.1. The exploratory endpoint was PFS.
If grade 2 or higher toxicity related to the study drug occurs in Groups 1 and 2 (as determined by the investigator), dose escalation will proceed using a 3+3 design starting from that dose level. If no DLT is observed at the 800 mg/d dose level after dose escalation, a meeting of investigators will be convened to decide whether to proceed with further dose escalation based on the available PK data, safety, and tolerability information.
5. Definition of DLT and MTD
The following events related to the study drug (including those that are definitely related, highly likely to be related, and possibly related):
(1) Grade 4 hematologic toxicity or grade 3 neutropenia accompanied by a fever of 38.5℃ or higher, or grade 3 thrombocytopenia accompanied by severe bleeding.
(2) Patients who discontinued the medication for more than 7 days due to unresolved toxicity reactions or who discontinued the medication more than twice due to toxicity […]
(3) In the context of supportive treatment, diarrhea of grade 2 lasting more than 7 days, or grade 3 diarrhea lasting more than 3 days.

Structure (SMILES): COc1cc2c(Nc3ccc(Br)cc3F)ncnc2cc1OCCCCN(C)C.Cl.Cl [HA121-28, N-(4-bromo-2-fluorophenyl)-7-(4-(dimethylamino)butoxy)-6-methoxy quinazolin-4-amine dihydrochloride]
- Serious TRAE: AST increased (Phase 1, 300 mg (N=4)): 0 No. (%)
- Serious TRAE: Abdominal Pain (Phase 1, 300 mg (N=4)): 0 No. (%)
- Serious TRAE: Abdominal distension (Phase 1, 300 mg (N=4)): 0 No. (%)
- Serious TRAE: Acute cholecystitis (Phase 1, 300 mg (N=4)): 0 No. (%)
- Serious TRAE: Acute pancreatitis (Phase 1, 300 mg (N=4)): 0 No. (%)
- Serious TRAE: Anal abscess (Phase 1, 300 mg (N=4)): 0 No. (%)
- Serious TRAE: Any (Phase 1, 300 mg (N=4)): 0 No. (%)
- Serious TRAE: Aortic intramural hematoma (Phase 1, 300 mg (N=4)): 0 No. (%)
- Serious TRAE: Arrhythmia (Phase 1, 300 mg (N=4)): 0 No. (%)
- Serious TRAE: Blood bilirubin increased (Phase 1, 300 mg (N=4)): 0 No. (%)
- Serious TRAE: Blood creatinine increased (Phase 1, 300 mg (N=4)): 0 No. (%)
- Serious TRAE: COVID-19 (Phase 1, 300 mg (N=4)): 0 No. (%)
- Serious TRAE: Cardiac tamponade (Phase 1, 300 mg (N=4)): 0 No. (%)
- Serious TRAE: Coronary artery atherosclerosis (Phase 1, 300 mg (N=4)): 0 No. (%)
- Serious TRAE: Death (Phase 1, 300 mg (N=4)): 0 No. (%)
- Serious TRAE: Diarrhea (Phase 1, 300 mg (N=4)): 0 No. (%)
- Serious TRAE: Drug eruption (Phase 1, 300 mg (N=4)): 0 No. (%)
- Serious TRAE: Dyspnea (Phase 1, 300 mg (N=4)): 0 No. (%)
- Serious TRAE: Embolism (Phase 1, 300 mg (N=4)): 0 No. (%)
- Serious TRAE: Erythema multiforme (Phase 1, 300 mg (N=4)): 0 No. (%)
- Serious TRAE: Headache (Phase 1, 300 mg (N=4)): 0 No. (%)
- Serious TRAE: Hemoptysis (Phase 1, 300 mg (N=4)): 0 No. (%)
- Serious TRAE: Hydronephrosis (Phase 1, 300 mg (N=4)): 0 No. (%)
- Serious TRAE: Hypertension (Phase 1, 300 mg (N=4)): 0 No. (%)
- Serious TRAE: Hypoalbuminemia (Phase 1, 300 mg (N=4)): 0 No. (%)
- Serious TRAE: Intestinal obstruction (Phase 1, 300 mg (N=4)): 0 No. (%)
- Serious TRAE: Intra-abdominal fluid collection (Phase 1, 300 mg (N=4)): 0 No. (%)
- Serious TRAE: Intracranial tumor hemorrhage (Phase 1, 300 mg (N=4)): 0 No. (%)
- Serious TRAE: Liver injury (Phase 1, 300 mg (N=4)): 0 No. (%)
- Serious TRAE: Lung adenocarcinoma (Phase 1, 300 mg (N=4)): 0 No. (%)
- Serious TRAE: Malignant neoplasm progression (Phase 1, 300 mg (N=4)): 0 No. (%)
- Serious TRAE: Multiple organ dysfunction syndrome (Phase 1, 300 mg (N=4)): 0 No. (%)
- Serious TRAE: Nausea (Phase 1, 300 mg (N=4)): 0 No. (%)
- Serious TRAE: Nephrolithiasis (Phase 1, 300 mg (N=4)): 0 No. (%)
- Serious TRAE: Platelet counts decreased (Phase 1, 300 mg (N=4)): 0 No. (%)
- Serious TRAE: Pleural effusion (Phase 1, 300 mg (N=4)): 0 No. (%)
- Serious TRAE: Pneumonia (Phase 1, 300 mg (N=4)): 0 No. (%)
- Serious TRAE: Pneumonitis (Phase 1, 300 mg (N=4)): 0 No. (%)
- Serious TRAE: Prolonged QT interval (Phase 1, 300 mg (N=4)): 0 No. (%)
- Serious TRAE: Pulmonary embolism (Phase 1, 300 mg (N=4)): 0 No. (%)
- Serious TRAE: Pyrexia (Phase 1, 300 mg (N=4)): 0 No. (%)
- Serious TRAE: Rash (Phase 1, 300 mg (N=4)): 0 No. (%)
- Serious TRAE: Rectal hemorrhage (Phase 1, 300 mg (N=4)): 0 No. (%)
- Serious TRAE: Respiratory failure (Phase 1, 300 mg (N=4)): 0 No. (%)
- Serious TRAE: Seizure (Phase 1, 300 mg (N=4)): 0 No. (%)
- Serious TRAE: Septic shock (Phase 1, 300 mg (N=4)): 0 No. (%)
- Serious TRAE: Sudden cardiac arrest (Phase 1, 300 mg (N=4)): 0 No. (%)
- Serious TRAE: Sudden death (Phase 1, 300 mg (N=4)): 0 No. (%)
- Serious TRAE: Upper respiratory tract infection (Phase 1, 300 mg (N=4)): 0 No. (%)
- Serious TRAE: Ventricular tachycardia (Phase 1, 300 mg (N=4)): 0 No. (%)
- Serious TRAE: Vomiting (Phase 1, 300 mg (N=4)): 0 No. (%)
- Serious TRAE: Weight loss (Phase 1, 300 mg (N=4)): 0 No. (%)
- Serious TEAE: ALT increased (Phase 1, 450 mg (N=79)): 0 No. (%)
- Serious TEAE: AST increased (Phase 1, 450 mg (N=79)): 0 No. (%)
- Serious TEAE: Abdominal Pain (Phase 1, 450 mg (N=79)): 0 No. (%)
- Serious TEAE: Abdominal distension (Phase 1, 450 mg (N=79)): 0 No. (%)
- Serious TEAE: Acute cholecystitis (Phase 1, 450 mg (N=79)): 1 (1.3) No. (%)
